# Key:
# [1] = molecular target: T1, recombinant full-length human PTPN11 (SHP2) (Homo sapiens, UniProt Q06124); assay: Inhibition of in vitro enzyme activity of SHP2 (DiFMUP fluorescence endpoint assay); format: biochemical; conditions: SHP2 0.5 nM, DiFMUP 200 μM, IRS-1 0.5 μM; 60 min incubation
# T1 construct: recombinant full-length human PTPN11 (SHP2), active (SignalChem); purchased SignalChem
# T1 sequence (Q06124 1-593): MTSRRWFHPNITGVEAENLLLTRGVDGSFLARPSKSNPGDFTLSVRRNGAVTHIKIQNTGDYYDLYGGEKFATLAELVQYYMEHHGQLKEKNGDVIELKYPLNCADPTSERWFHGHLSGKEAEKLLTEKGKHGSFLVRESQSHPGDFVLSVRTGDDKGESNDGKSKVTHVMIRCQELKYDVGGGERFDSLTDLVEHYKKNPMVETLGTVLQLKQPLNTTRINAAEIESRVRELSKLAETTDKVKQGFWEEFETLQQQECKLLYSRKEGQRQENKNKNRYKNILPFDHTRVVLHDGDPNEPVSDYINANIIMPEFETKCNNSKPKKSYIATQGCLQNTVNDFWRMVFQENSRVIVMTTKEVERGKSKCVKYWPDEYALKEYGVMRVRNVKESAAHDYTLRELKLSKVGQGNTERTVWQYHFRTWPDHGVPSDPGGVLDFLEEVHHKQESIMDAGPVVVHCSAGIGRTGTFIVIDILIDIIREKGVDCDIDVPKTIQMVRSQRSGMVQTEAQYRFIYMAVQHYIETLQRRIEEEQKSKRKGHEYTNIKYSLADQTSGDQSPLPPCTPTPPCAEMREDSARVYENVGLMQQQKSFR
# Description: Test Example 1: Experiment on the Inhibition of In Vitro Enzyme Activity of SHP2 (Protein Phosphatase)
# phosphatase: recombinant full-length human PTPN11 (SHP2), active (SignalChem);
# substrate: 6,8-difluoro-4-methylumbelliferyl phosphate (DiFMUP) (Invitrogen);
# activating peptide: IRS1_pY1172(dPEG8)pY1222 (IRS1) (BPS Bioscience);
# terminator: bpv(phen) (bpv) (Abcam).
# SHP2 concentration: 0.5 nM;
# DiFMUP concentration: 200 μM;
# IRS-1 concentration: 0.5 μM;
# bpv concentration: 160 μM;
# buffer systems: 60 mM Hepes pH 7.2; 75 mM NaCl; 75 mM KCl; 0.05% surfactant P20; 1 mM EDTA; 5 mM DTT;
# incubation duration of compound and enzyme: 60 minutes;
# reaction time of enzyme and substrate: 30 minutes;
# parameters for microplate reader: BMG PHERAstar fluorescence microplate reader at an excitation wavelength of 340 nm and an emission wavelength of 450 nm.
# Test group: A mixture of the test compound and the phosphatase SHP2 together with the activating peptide IRS-1 were incubated in the buffer system at room temperature for 60 minutes. The substrate DiFMUP was added to initiate the reaction and incubated at room temperature for 30 minutes. Thereafter, bpv was added to terminate the reaction. The reaction plate was placed in the microplate reader, and the fluorescence intensities of the wells in the plate were measured using an endpoint assay.
# Negative group: The experimental method for the negative group was the same as that for the test group, except that the test compound was substituted with 0.05% aqueous solution of DMSO.
# Blank group: The experimental method for the blank group was the same as that for the test group, except that the test compound was substituted with 0.05% aqueous solution of DMSO and that SHP2 was not added.
# The relative inhibitory activity was calculated for the test group at each concentration based on the following equation: inhibition rate (%)=100%−(the fluorescence intensity of the test group−the fluorescence intensity of the blank group)/(the fluorescence intensity of the negative group−the fluorescence intensity of the blank group)×100%. The half maximal inhibitory concentration (IC50) of the compound was calculated by fitting the curve according to the four-parameter logistic model.
# [2] = system: KYSE-520 cell (human esophageal squamous cell carcinoma cell); assay: Inhibition of the proliferation activity of KYSE-520 cell (CellTiter-Glo); format: cell-based; conditions: 120 h, KYSE-520 cell proliferation, 5 days
# Description: Test Example 2: Experiment on the Inhibition of the Proliferation Activity of KYSE-520 Cell (Human Esophageal Squamous Cell Carcinoma Cell)
# cell: KYSE-520 (JCRB Cell Bank);
# (§1) kit: CellTiter-Glo® Luminescent Cell Viability Assay Kit (Promega).
# (§2) inoculation amount of cell: 1500 cells/well;
# incubation conditions for compound: 37° C., 5% CO2;
# (§3) incubation duration: 5 days;
# (§4) detecting temperature: room temperature;
# (§5) chemiluminescence detection using the BMG PHERAstar FS reader.
# (§6) Cells were cultured in a medium containing 10% fetal bovine serum under the culture conditions of 37° C. and 5% CO2. An appropriate amount of cells were plated into a 96-well plate and cultured overnight in an incubator to allow the cells to adhere to the wall. The following day, the medium was removed and a complete medium containing a pre-diluted compound was added and incubated at 37° C. for 5 days. On the fifth day, the detection reagent CellTiter-Glo® was added into each well. Chemiluminescence was adopted to detect the relative luminescence units (RLUs) of the wells.
# (§7) The result of a well containing cell-free medium, treated with CellTiter-Glo®, was obtained as the blank value. Cell viability (%)=(sample RLU−blank RLU)/(vehicle RLU−blank RLU)×100%, and maximum inhibition rate (%)=100%−cell viabilitymax. conc. (%). The half maximal inhibitory concentration (IC50) of the compound was calculated by fitting the curve according to the four-parameter logistic model.
# [3] = system: NCI-H358 cell (human non-small cell lung cancer cell); assay: Inhibition of the proliferation activity of NCI-H358 cell (CellTiter-Glo); format: cell-based; conditions: 120 h, 5 days
# Description: Test Example 4: Experiment on the Inhibition of the Proliferation Activity of NCI-H358 Cell (Human Non-Small Cell Lung Cancer Cell)
# cell: NCI-H358 (Nanjing CoBioer);
# as §1, §2
# incubation conditions for compounds: 37° C., 5% CO2;
# as §3, §4, §5, §6, §7
SMILES,IC50 [1] [nM],IC50 [2] [nM],IC50 [3] [nM]
CC(N)C1(C)CCN(c2ncc(Sc3ccnc(N4CCCC4CO)c3Cl)nc2CO)CC1 (stereo not drawn) [Example 3],3.48,1140,–
"Cc1nc(N2CCC3(CC2)Cc2ncccc2[C@H]3N)c(CO)nc1Sc1ccnc(N2CC(C(C)(C)O)C2)c1Cl [Example 50, (S)-2-(1-(4-(5-(5-amino-5,7-dihydrospiro[cyclopenta[b]pyridine-6,4′-piperidin]-1′-yl)-6-(hydroxymethyl)-3-methylpyrazin-2-ylthio)-3-chloropyridin-2-yl)azetidin-3-yl)propan-2-ol]",4.84,–,–
"CC(C)(O)C1CN(c2nccc(Sc3cnc(N4CCC5(CC4)Oc4ncccc4[C@H]5N)c(CO)n3)c2Cl)C1 [Example 44, (R)-2-(1-(4-(5-(3-amino-3H-spiro[furo[2,3-b]pyridine-2,4′-piperidin]-1′-yl)-6-(hydroxymethyl)pyrazin-2-ylthio)-3-chloropyridin-2-yl)azetidin-3-yl)propan-2-ol]",2.49,50,50
"COCC1(C)CN(c2nccc(Sc3cnc(N4CCC5(CC4)CO[C@@H](C)[C@H]5N)c(CO)n3)c2Cl)C1 [Example 33, (3-((3S,4S)-4-amino-3-methyl-2-oxa-8-azaspiro[4.5]decan-8-yl)-6-(3-chloro-2-(3-(methoxymethyl)-3-methylazetidin-1-yl)pyridin-4-ylthio)pyrazin-2-yl)methanol]",4.1,90,–
"Cc1nc(N2CCC3(CC2)CO[C@@H](C)[C@H]3N)c(CO)nc1Sc1ccnc(N2CC(C(C)(C)O)C2)c1Cl [Example 32, 2-(1-(4-(5-((3S,4S)-4-amino-3-methyl-2-oxa-8-azaspiro[4.5]decan-8-yl)-6-(hydroxymethyl)-3-methylpyrazin-2-ylthio)-3-chloropyridin-2-yl)azetidin-3-yl)propan-2-ol]",3.7,–,–
"CC(C)(O)C1CN(c2nccc(Sc3cnc(N4CCC5(CC4)CCC4(CC4)[C@H]5N)c(CO)n3)c2Cl)C1 [Example 49, 2-(1-(4-(5-(4-amino-8-azadispiro[2.1.5.2]dodecan-8-yl)-6-(hydroxymethyl)pyrazin-2-ylthio)-3-chloropyridin-2-yl)azetidin-3-yl)propan-2-ol]",2.3,270,–
"CC(C)(O)C1CN(c2nccc(Sc3cnc(N4CCC5(CC4)Oc4ccc(F)cc4[C@H]5N)cn3)c2Cl)C1 [Example 41, (R)-2-(1-(4-(5-(3-amino-5-fluoro-3H-spiro[benzofuran-2,4′-piperidin]-1′-yl)pyrazin-2-ylthio)-3-chloropyridin-2-yl)azetidin-3-yl)propan-2-ol]",8.4,–,–
"C[C@@H]1OCC2(CCN(c3ncc(Sc4ccnc(N5CC(CF)C5)c4Cl)nc3CO)CC2)[C@@H]1N [Example 16, (3-((3S,4S)-4-amino-3-methyl-2-oxa-8-azaspiro[4.5]decan-8-yl)-6-(3-chloro-2-(3-(fluoromethyl)azetidin-1-yl)pyridin-4-ylthio)pyrazin-2-yl)methanol]",1,40,–
"C[C@@H]1OCC2(CCN(c3ncc(Sc4ccnc(N5CCC(CC#N)C5)c4Cl)nc3CO)CC2)[C@@H]1N (stereo partly drawn) [Example 10, 2-(1-(4-(5-((3S,4S)-4-amino-3-methyl-2-oxa-8-azaspiro[4.5]decan-8-yl)-6-(hydroxymethyl)pyrazin-2-ylthio)-3-chloropyridin-2-yl)pyrrolidin-3-yl)acetonitrile]",1.22,40,–
"C[C@@H]1OCC2(CCN(c3cnc(Sc4ccnc(N5CCCC5CO)c4Cl)c(N)n3)CC2)[C@@H]1N (stereo partly drawn) [Example 37, (1-(4-(3-amino-5-((3S,4S)-4-amino-3-methyl-2-oxa-8-azaspiro[4.5]decan-8-yl)pyrazin-2-ylthio)-3-chloropyridin-2-yl)pyrrolidin-2-yl)methanol]",2.4,–,–
"CC(C)(O)C1CN(c2nccc(Sc3cnc(N4CCC5(CC4)Oc4ccc(F)cc4[C@H]5N)c(CO)n3)c2Cl)C1 [Example 20, (R)-2-(1-(4-(5-(3-amino-5-fluoro-3H-spiro[benzofuran-2,4′-piperidin]-1′-yl)-6-(hydroxymethyl)pyrazin-2-ylthio)-3-chloropyridin-2-yl)azetidin-3-yl)propan-2-ol]",6.9,–,–
"CC(C)(O)C1CN(c2nccc(Sc3cnc(N4CCC5(CC4)Cc4ncccc4[C@H]5N)cn3)c2Cl)C1 [Example 45, (S)-2-(1-(4-(5-(5-amino-5,7-dihydrospiro[cyclopenta[b]pyridine-6,4′-piperidin]-1′-yl)pyrazin-2-ylthio)-3-chloropyridin-2-yl)azetidin-3-yl)propan-2-ol]",4.1,210,–
"C[C@@H]1OCC2(CCN(c3cnc(Sc4ccnc(N5CC(CS(C)(=O)=O)C5)c4Cl)c(N)n3)CC2)[C@@H]1N [Example 38, (3S,4S)-8-(6-amino-5-(3-chloro-2-(3-(methylsulfonylmethyl)azetidin-1-yl)pyridin-4-ylthio)pyrazin-2-yl)-3-methyl-2-oxa-8-azaspiro[4.5]decan-4-amine]",5.3,–,–
"C[C@@H]1OCC2(CCN(c3ncc(Sc4ccc(N5CC(C(C)(C)O)C5)nc4Cl)nc3CO)CC2)[C@@H]1N [Example 11, 2-(1-(5-(5-((3S,4S)-4-amino-3-methyl-2-oxa-8-azaspiro[4.5]decan-8-yl)-6-(hydroxymethyl)pyrazin-2-ylthio)-6-chloropyridin-2-yl)azetidin-3-yl)propan-2-ol]",9.3,–,–
"C[C@@H]1OCC2(CCN(c3ncc(Sc4ccnc(N5CCC(CO)C5)c4Cl)nc3CO)CC2)[C@@H]1N (stereo partly drawn) [Example 8, (3-((3S,4S)-4-amino-3-methyl-2-oxa-8-azaspiro[4.5]decan-8-yl)-6-(3-chloro-2-(3-(hydroxymethyl)pyrrolidin-1-yl)pyridin-4-ylthio)pyrazin-2-yl)methanol]",0.88,30,–

# — patent US20230212180A1, “SUBSTITUTED PYRAZINE COMPOUND, PHARMACEUTICAL COMPOSITION COMPRISING SAME, AND USE THEREOF” (Sichuan Kelun-Biotech Biopharmaceutical Co., Ltd., priority 2020, published 2023)
